Source: ChEMBL document CHEMBL2385026, “Identification of C-2 hydroxyethyl imidazopyrrolopyridines as potent JAK1 inhibitors with favorable physicochemical properties and high selectivity over JAK2” (J Med Chem, 2013)
Converted amounts (≈) assume the structure as drawn.

Key:
[1] = AUC in Beagle dog at 2 mg/kg, po by LC/MS/MS analysis; assay type: ADME, organism-based, Canis lupus familiaris; parameters: dose 2 mg/kg, route oral; conditions: plasma
[2] = molecular target: T1, Tyrosine-protein kinase JAK1 (Homo sapiens, UniProt P23458)
T1 sequence (P23458 whole entry): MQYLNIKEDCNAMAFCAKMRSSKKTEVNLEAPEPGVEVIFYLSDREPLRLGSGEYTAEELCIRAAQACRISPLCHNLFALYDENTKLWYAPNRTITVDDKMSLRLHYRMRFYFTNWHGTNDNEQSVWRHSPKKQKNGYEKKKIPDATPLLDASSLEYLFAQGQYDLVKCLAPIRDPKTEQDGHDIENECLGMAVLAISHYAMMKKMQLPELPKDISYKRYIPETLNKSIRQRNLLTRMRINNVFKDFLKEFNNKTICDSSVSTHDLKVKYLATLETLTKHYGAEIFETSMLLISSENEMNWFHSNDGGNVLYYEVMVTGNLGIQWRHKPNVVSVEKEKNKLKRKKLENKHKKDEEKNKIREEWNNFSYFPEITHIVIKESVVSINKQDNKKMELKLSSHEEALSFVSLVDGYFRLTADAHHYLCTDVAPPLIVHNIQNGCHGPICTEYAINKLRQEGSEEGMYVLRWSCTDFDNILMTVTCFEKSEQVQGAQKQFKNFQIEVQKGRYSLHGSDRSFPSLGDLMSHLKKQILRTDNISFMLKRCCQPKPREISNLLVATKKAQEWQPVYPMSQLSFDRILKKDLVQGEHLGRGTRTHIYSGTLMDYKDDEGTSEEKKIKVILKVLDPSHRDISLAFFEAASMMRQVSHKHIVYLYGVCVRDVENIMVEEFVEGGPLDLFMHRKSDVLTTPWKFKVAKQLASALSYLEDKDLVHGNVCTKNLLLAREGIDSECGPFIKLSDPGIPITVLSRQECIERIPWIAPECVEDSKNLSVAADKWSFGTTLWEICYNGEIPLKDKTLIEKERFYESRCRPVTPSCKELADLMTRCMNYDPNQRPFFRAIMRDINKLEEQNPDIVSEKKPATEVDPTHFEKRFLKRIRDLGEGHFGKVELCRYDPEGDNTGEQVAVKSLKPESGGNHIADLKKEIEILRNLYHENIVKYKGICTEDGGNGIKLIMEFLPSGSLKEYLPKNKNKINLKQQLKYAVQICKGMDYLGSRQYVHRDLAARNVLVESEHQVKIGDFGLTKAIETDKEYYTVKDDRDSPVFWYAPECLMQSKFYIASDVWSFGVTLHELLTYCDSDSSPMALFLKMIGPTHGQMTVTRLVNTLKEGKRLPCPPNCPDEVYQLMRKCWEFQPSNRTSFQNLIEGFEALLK

Cytochrome P450 2C9 = Cytochrome P450 2C9 (Homo sapiens, UniProt P11712)
Chain of Cytochrome P450 2C9 (P11712 whole entry): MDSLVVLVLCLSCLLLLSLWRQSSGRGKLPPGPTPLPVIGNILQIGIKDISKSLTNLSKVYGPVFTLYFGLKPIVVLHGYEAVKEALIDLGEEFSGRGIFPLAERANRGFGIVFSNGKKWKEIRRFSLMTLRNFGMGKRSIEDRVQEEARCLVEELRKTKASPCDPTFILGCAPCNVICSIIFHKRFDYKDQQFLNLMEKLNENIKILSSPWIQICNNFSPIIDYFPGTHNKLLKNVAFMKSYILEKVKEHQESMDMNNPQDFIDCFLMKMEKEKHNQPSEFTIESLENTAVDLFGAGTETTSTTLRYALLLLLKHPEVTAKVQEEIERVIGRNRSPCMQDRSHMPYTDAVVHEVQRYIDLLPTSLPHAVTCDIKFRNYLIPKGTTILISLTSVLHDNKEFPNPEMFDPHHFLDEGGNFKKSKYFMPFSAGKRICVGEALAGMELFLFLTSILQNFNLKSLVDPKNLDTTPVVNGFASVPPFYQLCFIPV

Cytochrome P450 2D6 = Cytochrome P450 2D6 (Homo sapiens, UniProt P10635)
Chain of Cytochrome P450 2D6 (P10635 whole entry): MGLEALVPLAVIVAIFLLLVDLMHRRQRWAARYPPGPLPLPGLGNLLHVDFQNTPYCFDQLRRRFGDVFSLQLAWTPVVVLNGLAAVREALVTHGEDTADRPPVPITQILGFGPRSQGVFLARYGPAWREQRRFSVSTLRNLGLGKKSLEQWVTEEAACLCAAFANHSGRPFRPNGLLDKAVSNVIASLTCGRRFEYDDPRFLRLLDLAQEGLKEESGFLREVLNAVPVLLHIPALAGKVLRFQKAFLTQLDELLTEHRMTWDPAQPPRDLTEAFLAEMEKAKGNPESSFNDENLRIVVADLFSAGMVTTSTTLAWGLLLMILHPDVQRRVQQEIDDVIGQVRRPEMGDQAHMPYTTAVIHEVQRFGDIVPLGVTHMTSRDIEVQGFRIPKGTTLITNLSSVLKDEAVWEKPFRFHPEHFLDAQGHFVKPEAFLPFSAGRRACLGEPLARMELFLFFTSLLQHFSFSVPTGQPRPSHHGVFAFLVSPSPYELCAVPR

[3] = molecular target: T1, Tyrosine-protein kinase JAK1; remark: listed apart in the source
[4] = Plasma protein binding in dog; assay type: ADME, cell-free, Canis lupus familiaris; conditions: read-out: PPB (converted)
[5] = Thermodynamic solubility in aqueous buffer at pH 7.4; assay type: physicochemical; conditions: read-out: Therm_solubility
[6] = Apparent permeability across basolateral to apical side in dog MDCK cells; assay type: ADME, cell-based, Canis lupus familiaris
[7] = Thermodynamic solubility in aqueous buffer at pH 2; assay type: physicochemical; conditions: read-out: Therm_solubility
Cytochrome P450 2C19 = Cytochrome P450 2C19 (Homo sapiens, UniProt P33261)
Chain of Cytochrome P450 2C19 (P33261 whole entry): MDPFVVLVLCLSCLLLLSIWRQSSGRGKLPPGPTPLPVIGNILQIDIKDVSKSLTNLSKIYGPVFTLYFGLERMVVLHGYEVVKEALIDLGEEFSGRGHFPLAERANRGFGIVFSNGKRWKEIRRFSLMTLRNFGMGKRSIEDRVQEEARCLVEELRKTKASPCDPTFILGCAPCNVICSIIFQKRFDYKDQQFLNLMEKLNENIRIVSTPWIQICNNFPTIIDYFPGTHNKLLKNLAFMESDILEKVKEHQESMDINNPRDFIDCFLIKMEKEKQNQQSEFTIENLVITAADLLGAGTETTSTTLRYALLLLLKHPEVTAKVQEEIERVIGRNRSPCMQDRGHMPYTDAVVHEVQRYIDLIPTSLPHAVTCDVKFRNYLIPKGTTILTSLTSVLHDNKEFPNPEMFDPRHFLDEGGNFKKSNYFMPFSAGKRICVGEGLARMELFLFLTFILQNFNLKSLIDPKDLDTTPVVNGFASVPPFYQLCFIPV

[8] = Hepatic clearance in human liver microsomes by LC/MS/MS analysis; assay type: ADME, Microsome
[9] = Plasma protein binding in rat; assay type: ADME, cell-free; conditions: read-out: PPB (converted)
[10] = Cmax in Sprague-Dawley rat at 2 mg/kg, po by LC/MS/MS analysis; assay type: ADME, organism-based; parameters: dose 2 mg/kg, route oral; conditions: in vivo
[11] = Hepatic clearance in human hepatocytes after 1 to 4 hrs by LC/MS/MS analysis; assay type: ADME, cell-based, Liver, Hepatocyte
[12] = molecular target: T1, Tyrosine-protein kinase JAK1; remark: listed apart in the source
[13] = (§1) Oral bioavailability in Sprague-Dawley rat at 2 mg/kg by LC/MS/MS analysis; assay type: ADME, organism-based; conditions: Sprague-Dawley, in vivo
[14] = AUC in Sprague-Dawley rat at 2 mg/kg, po by LC/MS/MS analysis; assay type: ADME, organism-based; parameters: dose 2 mg/kg, route oral; conditions: plasma
[15] = Clearance in Beagle dog at 0.4 mg/kg, iv by LC/MS/MS analysis; assay type: ADME, organism-based, Canis lupus familiaris; parameters: dose 0.4 mg/kg, route intravenous; conditions: in vivo
[16] = Metabolic stability in monkey hepatocytes assessed as hepatic clearance; assay type: ADME, cell-based, Macaca mulatta, Liver, Hepatocyte; conditions: rhesus monkey
[17] = Metabolic stability in rat hepatocytes assessed as hepatic clearance; assay type: ADME, cell-based, Liver, Hepatocyte
[18] = Metabolic stability in dog hepatocytes assessed as hepatic clearance; assay type: ADME, cell-based, Canis lupus familiaris, Liver, Hepatocyte
[19] = Half life in Sprague-Dawley rat at 0.4 mg/kg, iv by LC/MS/MS analysis; assay type: ADME, organism-based; parameters: dose 0.4 mg/kg, route intravenous; conditions: in vivo
[20] = Half life in Beagle dog at 0.4 mg/kg, iv by LC/MS/MS analysis; assay type: ADME, organism-based, Canis lupus familiaris; parameters: dose 0.4 mg/kg, route intravenous; conditions: in vivo
[21] = Apparent permeability across apical to basolateral side in dog MDCK cells; assay type: ADME, cell-based, Canis lupus familiaris
[22] = molecular target: T2, Non-receptor tyrosine-protein kinase TYK2 (Homo sapiens, UniProt P29597)
T2 sequence (P29597 whole entry): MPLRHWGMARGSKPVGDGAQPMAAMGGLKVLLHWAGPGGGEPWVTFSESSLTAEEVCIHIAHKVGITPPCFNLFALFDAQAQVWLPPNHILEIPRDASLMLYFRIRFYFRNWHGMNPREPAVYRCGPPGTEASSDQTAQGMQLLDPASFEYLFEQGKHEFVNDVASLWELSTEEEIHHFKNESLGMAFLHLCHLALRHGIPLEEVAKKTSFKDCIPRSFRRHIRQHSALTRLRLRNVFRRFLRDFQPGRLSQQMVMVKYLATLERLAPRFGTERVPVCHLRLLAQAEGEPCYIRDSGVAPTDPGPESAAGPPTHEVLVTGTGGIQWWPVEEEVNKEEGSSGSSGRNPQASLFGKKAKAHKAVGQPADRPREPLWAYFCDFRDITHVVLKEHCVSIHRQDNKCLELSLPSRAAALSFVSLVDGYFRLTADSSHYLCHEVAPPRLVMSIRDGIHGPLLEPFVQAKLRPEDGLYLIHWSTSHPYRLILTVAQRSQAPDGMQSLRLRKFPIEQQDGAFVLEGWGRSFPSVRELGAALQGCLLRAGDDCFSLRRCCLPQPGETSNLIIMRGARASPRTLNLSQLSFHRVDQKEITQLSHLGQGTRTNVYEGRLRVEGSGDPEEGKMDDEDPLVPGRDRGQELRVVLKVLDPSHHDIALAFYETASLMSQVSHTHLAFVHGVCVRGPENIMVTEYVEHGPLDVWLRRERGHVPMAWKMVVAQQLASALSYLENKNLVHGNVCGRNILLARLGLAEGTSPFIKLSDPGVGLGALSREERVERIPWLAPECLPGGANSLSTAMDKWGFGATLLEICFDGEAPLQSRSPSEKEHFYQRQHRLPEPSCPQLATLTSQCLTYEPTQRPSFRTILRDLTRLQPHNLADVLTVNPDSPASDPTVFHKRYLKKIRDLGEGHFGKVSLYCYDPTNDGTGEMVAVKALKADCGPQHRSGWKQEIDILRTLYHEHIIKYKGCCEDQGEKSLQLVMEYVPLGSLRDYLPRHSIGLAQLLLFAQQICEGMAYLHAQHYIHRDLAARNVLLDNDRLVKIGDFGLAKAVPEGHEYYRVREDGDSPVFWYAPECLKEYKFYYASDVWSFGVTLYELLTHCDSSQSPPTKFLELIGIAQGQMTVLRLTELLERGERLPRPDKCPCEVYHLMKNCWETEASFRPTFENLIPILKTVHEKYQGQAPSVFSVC

Cytochrome P450 1A2 = molecular target: T3, Cytochrome P450 1A2 (Homo sapiens, UniProt P05177); assay: Reversible inhibition of CYP1A2 in human liver microsomes using phenacetin as substrate by LC/MS/MS analysis; assay type: ADME, Microsome
T3 sequence (P05177 whole entry): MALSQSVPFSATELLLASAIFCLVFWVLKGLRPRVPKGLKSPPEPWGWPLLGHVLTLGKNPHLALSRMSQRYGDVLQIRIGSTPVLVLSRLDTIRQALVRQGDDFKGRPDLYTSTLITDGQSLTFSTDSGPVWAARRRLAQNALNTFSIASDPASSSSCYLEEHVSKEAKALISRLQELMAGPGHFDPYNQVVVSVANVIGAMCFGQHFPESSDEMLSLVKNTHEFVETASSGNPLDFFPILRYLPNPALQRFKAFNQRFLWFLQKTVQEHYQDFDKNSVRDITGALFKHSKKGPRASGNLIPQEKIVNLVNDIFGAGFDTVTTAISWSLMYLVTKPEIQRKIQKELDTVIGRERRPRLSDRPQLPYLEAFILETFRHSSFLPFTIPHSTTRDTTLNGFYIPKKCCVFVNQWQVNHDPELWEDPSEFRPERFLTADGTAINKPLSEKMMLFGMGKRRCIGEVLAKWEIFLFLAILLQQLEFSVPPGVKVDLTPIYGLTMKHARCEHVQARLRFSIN

[23] = molecular target: Tyrosine-protein kinase JAK3 (Homo sapiens, UniProt P52333)
Cytochrome P450 3A4 [24] = molecular target: T4, Cytochrome P450 3A4 (Homo sapiens, UniProt P08684); assay: Reversible inhibition of CYP3A4 in human liver microsomes using testosterone as substrate by LC/MS/MS analysis; assay type: ADME, Microsome
T4 sequence (P08684 whole entry): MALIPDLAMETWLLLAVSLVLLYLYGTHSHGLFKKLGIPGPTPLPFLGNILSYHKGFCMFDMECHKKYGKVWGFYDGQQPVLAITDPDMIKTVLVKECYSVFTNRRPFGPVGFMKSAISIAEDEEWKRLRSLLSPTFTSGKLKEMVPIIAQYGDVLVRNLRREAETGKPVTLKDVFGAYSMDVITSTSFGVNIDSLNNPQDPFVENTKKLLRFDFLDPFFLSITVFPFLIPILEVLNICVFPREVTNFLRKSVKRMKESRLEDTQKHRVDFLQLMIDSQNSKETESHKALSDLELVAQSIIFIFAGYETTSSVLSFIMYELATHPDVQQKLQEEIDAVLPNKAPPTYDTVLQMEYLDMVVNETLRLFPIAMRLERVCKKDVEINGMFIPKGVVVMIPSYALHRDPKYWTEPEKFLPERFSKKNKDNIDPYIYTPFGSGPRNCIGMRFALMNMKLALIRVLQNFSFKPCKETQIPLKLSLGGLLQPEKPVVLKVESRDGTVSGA

Cytochrome P450 3A4 [25] = molecular target: T4, Cytochrome P450 3A4; assay: Reversible inhibition of CYP3A4 in human liver microsomes using midazolam as substrate by LC/MS/MS analysis; assay type: ADME, Microsome
[26] = molecular target: T2, Non-receptor tyrosine-protein kinase TYK2; remark: listed apart in the source
Canis familiaris = assay: (§2) Oral bioavailability in Beagle dog at 2 mg/kg by LC/MS/MS analysis; assay type: ADME, organism-based, Canis lupus familiaris; conditions: in vivo
[27] = Clearance in Sprague-Dawley rat at 0.4 mg/kg, iv by LC/MS/MS analysis; assay type: ADME, organism-based; parameters: dose 0.4 mg/kg, route intravenous; conditions: in vivo
[28] = Plasma protein binding in cynomolgus monkey; assay type: ADME, cell-free, Macaca fascicularis; conditions: read-out: PPB (converted)
[29] = Cmax in Beagle dog at 2 mg/kg, po by LC/MS/MS analysis; assay type: ADME, organism-based, Canis lupus familiaris; parameters: dose 2 mg/kg, route oral; conditions: in vivo
[30] = molecular target: Voltage-gated inwardly rectifying potassium channel KCNH2 (Homo sapiens, UniProt Q12809)
[31] = Oral bioavailability in cynomolgus monkey at 2 mg/kg by LC/MS/MS analysis; assay type: ADME, organism-based, Macaca fascicularis; conditions: in vivo
[32] = Clearance in cynomolgus monkey at 0.4 mg/kg, iv by LC/MS/MS analysis; assay type: ADME, organism-based, Macaca fascicularis; parameters: dose 0.4 mg/kg, route intravenous; conditions: in vivo
[33] = AUC in cynomolgus monkey at 2 mg/kg, po by LC/MS/MS analysis; assay type: ADME, organism-based, Macaca fascicularis; parameters: dose 2 mg/kg, route oral; conditions: plasma
Rattus norvegicus = assay: as §1; assay type: ADME, organism-based; conditions: in vivo
[34] = Cmax in cynomolgus monkey at 2 mg/kg, po by LC/MS/MS analysis; assay type: ADME, organism-based, Macaca fascicularis; parameters: dose 2 mg/kg, route oral; conditions: in vivo
[35] = Half life in cynomolgus monkey at 0.4 mg/kg, iv by LC/MS/MS analysis; assay type: ADME, organism-based, Macaca fascicularis; parameters: dose 0.4 mg/kg, route intravenous; conditions: in vivo
[36] = as §2; assay type: ADME, organism-based, Canis lupus familiaris; conditions: Beagle, in vivo

Compound: C[C@@H](O)c1nc2cnc3[nH]ccc3c2n1[C@H]1CC[C@H](CC#N)CC1
- AUC [1]: 11.2 µM·h
- EC50 [2]: 5.7 nM
- IC50 (Cytochrome P450 2C9): > 10000 nM
- IC50 (Cytochrome P450 2D6): > 10000 nM
- EC50 [3]: 28 nM
- fraction unbound [4]: 0.37
- solubility thermodynamic [5]: 0.13 mM (≈ 42 µg/mL)
- Papp B→A [6]: 4.9 ×10⁻⁶ cm/s
- solubility thermodynamic [7]: > 4 mM
- IC50 (Cytochrome P450 2C19): > 10000 nM
- CLhep predicted [8]: 5.2 mL/min/kg
- fraction unbound [9]: 0.37
- Cmax [10]: 930 nM
- CLhep predicted [11]: 6.8 mL/min/kg
- Ki [12]: 0.1 nM
- bioavailability [13]: 49%
- AUC [14]: 1.3 µM·h
- clearance [15]: 17 mL/min/kg
- CLhep predicted [16]: 25 mL/min/kg
- CLhep predicted [17]: 15 mL/min/kg
- CLhep predicted [18]: 12 mL/min/kg
- half-life [19]: 0.5 h
- half-life [20]: 1.8 h
- Papp A→B [21]: 3.5 ×10⁻⁶ cm/s
- EC50 [22]: 100 nM
- IC50 (Cytochrome P450 1A2): > 10000 nM
- Ki [23]: 5.9 nM
- IC50 (Cytochrome P450 3A4 [24]): > 10000 nM
- IC50 (Cytochrome P450 3A4 [25]): 8800 nM
- Ki [26]: 0.4 nM
- F (Canis familiaris): 183%
- clearance [27]: 38 mL/min/kg
- fraction unbound [28]: 0.3
- Cmax [29]: 2500 nM

Compound: C[C@@H](O)c1nc2cnc3[nH]ccc3c2n1[C@H]1CCCOC1
- AUC [1]: 65.7 µM·h
- EC50 [2]: 110 nM
- IC50 [30]: > 100000 nM
- IC50 (Cytochrome P450 2C9): > 10000 nM
- IC50 (Cytochrome P450 2D6): > 10000 nM
- EC50 [3]: 180 nM
- fraction unbound [4]: 0.39
- solubility thermodynamic [5]: > 4 mM
- bioavailability [31]: 70%
- Papp B→A [6]: 8.6 ×10⁻⁶ cm/s
- solubility thermodynamic [7]: > 4 mM
- IC50 (Cytochrome P450 2C19): > 10000 nM
- CLhep predicted [8]: 2 mL/min/kg
- fraction unbound [9]: 0.61
- clearance [32]: 19 mL/min/kg
- Cmax [10]: 5200 nM
- CLhep predicted [11]: 1.9 mL/min/kg
- AUC [33]: 4.3 µM·h
- Ki [12]: 2.8 nM
- F (Rattus norvegicus): 197%
- AUC [14]: 10.7 µM·h
- clearance [15]: 2.1 mL/min/kg
- CLhep predicted [16]: 21 mL/min/kg
- CLhep predicted [17]: 2.3 mL/min/kg
- CLhep predicted [18]: 4.9 mL/min/kg
- half-life [19]: 1.5 h
- half-life [20]: 5.7 h
- Cmax [34]: 1800 nM
- Papp A→B [21]: 7.6 ×10⁻⁶ cm/s
- EC50 [22]: > 5800 nM
- IC50 (Cytochrome P450 1A2): > 10000 nM
- IC50 (Cytochrome P450 3A4 [24]): > 10000 nM
- IC50 (Cytochrome P450 3A4 [25]): > 10000 nM
- Ki [26]: 31 nM
- half-life [35]: 1.1 h
- bioavailability [36]: 111%
- clearance [27]: 22 mL/min/kg
- fraction unbound [28]: 0.46
- Cmax [29]: 9800 nM
